Laboratory results: the supplement of paper PMC10307832

Assays:
Experiment in all cases: relative viability (nuclei count vs DMSO), 5 days (fraction); higher = more cells survive
201T = system: 201T
In short: (§1)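 One day after seeding in 1536-well plates, lung cancer cell lines were dosed by pin tool. Dosing was either single-drug or a fixed anchor-drug dose plus five library-drug doses (not always all listed) in √10 steps. After 5 days, nuclei were stained in one fix-and-stain step and counted on 4× images, and relative viability is the nuclei count of treated wells over that of vehicle wells, given as the median of duplicate plates.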

A-427 = system: A-427
In short: as §1

ABC-1 = system: ABC-1
In short: as §1

BEN = system: BEN
In short: as §1

CAL-12T = system: CAL-12T
In short: as §1

H3255 = system: H3255
In short: as §1

HCC-15 = system: HCC-15
In short: as §1

LC-2-ad = system: LC-2-ad
In short: as §1

LCLC-97TM1 = system: LCLC-97TM1
In short: as §1

NCI-H1650 = system: NCI-H1650
In short: as §1

NCI-H1651 = system: NCI-H1651
In short: as §1

NCI-H1792 = system: NCI-H1792
In short: as §1

NCI-H1915 = system: NCI-H1915
In short: as §1

NCI-H1944 = system: NCI-H1944
In short: as §1

NCI-H2023 = system: NCI-H2023
In short: as §1

NCI-H2087 = system: NCI-H2087
In short: as §1

NCI-H441 = system: NCI-H441
In short: as §1

NCI-H460 = system: NCI-H460
In short: as §1

NCI-H520 = system: NCI-H520
In short: as §1

NCI-H650 = system: NCI-H650
In short: as §1

NCI-H661 = system: NCI-H661
In short: as §1

NCI-H727 = system: NCI-H727
In short: as §1

PC-3 [JPC-3] = system: PC-3 [JPC-3]
In short: as §1

With COc1cc(N2CCC(C(N)=O)CC2)ccc1Nc1nc(N)c(Cl)c(Nc2ccccc2S(=O)(=O)C(C)C)n1 [HG-5-88-01] + CC(=O)c1c(C)c2cnc(Nc3ccc(N4CCNCC4)cn3)nc2n(C2CCCC2)c1=O [Palbociclib] (partner 0.5 µM) the relative viability (201T; first compound 0.04 µM) was 0.368, the relative viability (201T; first compound 0.1265 µM) was 0.343 and the relative viability (201T; first compound 1.265 µM) was 0.347. It also gave a relative viability (201T; first compound 4 µM) of 0.36, a relative viability (A-427; first compound 0.04 µM) of 0.536 and a relative viability (A-427; first compound 0.1265 µM) of 0.541. It also gave a relative viability (A-427; first compound 0.4 µM) of 0.541, a relative viability (A-427; first compound 1.265 µM) of 0.517 and a relative viability (A-427; first compound 4 µM) of 0.463. For the same compound, the relative viability (ABC-1; first compound 0.04 µM) was 0.667, the relative viability (ABC-1; first compound 0.1265 µM) was 0.664 and the relative viability (ABC-1; first compound 0.4 µM) was 0.764. For the same compound, the relative viability (ABC-1; first compound 1.265 µM) was 0.583, the relative viability (ABC-1; first compound 4 µM) was 0.626 and the relative viability (BEN; first compound 0.04 µM) was 0.451. It also gave a relative viability (BEN; first compound 0.1265 µM) of 0.461, a relative viability (BEN; first compound 0.4 µM) of 0.409 and a relative viability (BEN; first compound 1.265 µM) of 0.465. For the same compound, the relative viability (BEN; first compound 4 µM) was 0.411, the relative viability (CAL-12T; first compound 0.04 µM) was 0.509 and the relative viability (CAL-12T; first compound 0.1265 µM) was 0.552. For the same compound, the relative viability (CAL-12T; first compound 0.4 µM) was 0.405, the relative viability (CAL-12T; first compound 1.265 µM) was 0.214 and the relative viability (CAL-12T; first compound 4 µM) was 0.211. It also gave a relative viability (H3255; first compound 0.04 µM) of 0.291, a relative viability (H3255; first compound 0.1265 µM) of 0.312 and a relative viability (H3255; first compound 0.4 µM) of 0.309. The relative viability (H3255; first compound 4 µM) was 0.277, the relative viability (HCC-15; first compound 0.04 µM) was 0.772 and the relative viability (HCC-15; first compound 0.1265 µM) was 0.792. The relative viability (HCC-15; first compound 0.4 µM) was 0.643, the relative viability (HCC-15; first compound 1.265 µM) was 0.724 and the relative viability (HCC-15; first compound 4 µM) was 0.432. For the same compound, the relative viability (LC-2-ad; first compound 0.04 µM) was 0.471, the relative viability (LC-2-ad; first compound 0.1265 µM) was 0.431 and the relative viability (LC-2-ad; first compound 0.4 µM) was 0.449. For the same compound, the relative viability (LC-2-ad; first compound 1.265 µM) was 0.474, the relative viability (LC-2-ad; first compound 4 µM) was 0.516 and the relative viability (LCLC-97TM1; first compound 0.04 µM) was 0.214. It also gave a relative viability (LCLC-97TM1; first compound 0.1265 µM) of 0.198, a relative viability (LCLC-97TM1; first compound 0.4 µM) of 0.197 and a relative viability (LCLC-97TM1; first compound 1.265 µM) of 0.194. For the same compound, the relative viability (LCLC-97TM1; first compound 4 µM) was 0.118, the relative viability (NCI-H1650; first compound 0.04 µM) was 0.342 and the relative viability (NCI-H1650; first compound 0.1265 µM) was 0.391. The relative viability (NCI-H1650; first compound 0.4 µM) was 0.327, the relative viability (NCI-H1650; first compound 1.265 µM) was 0.298 and the relative viability (NCI-H1650; first compound 4 µM) was 0.223. The relative viability (NCI-H1651; first compound 0.04 µM) was 0.571, the relative viability (NCI-H1651; first compound 0.1265 µM) was 0.51 and the relative viability (NCI-H1651; first compound 0.4 µM) was 0.517. The relative viability (NCI-H1651; first compound 1.265 µM) was 0.458, the relative viability (NCI-H1651; first compound 4 µM) was 0.616 and the relative viability (NCI-H1792; first compound 0.04 µM) was 0.74. The relative viability (NCI-H1792; first compound 0.1265 µM) was 0.675, the relative viability (NCI-H1792; first compound 0.4 µM) was 0.623 and the relative viability (NCI-H1792; first compound 4 µM) was 0.614. The relative viability (NCI-H1915; first compound 0.04 µM) was 0.592, the relative viability (NCI-H1915; first compound 0.1265 µM) was 0.559 and the relative viability (NCI-H1915; first compound 0.4 µM) was 0.588. For the same compound, the relative viability (NCI-H1915; first compound 1.265 µM) was 0.565, the relative viability (NCI-H1915; first compound 4 µM) was 0.502 and the relative viability (NCI-H1944; first compound 0.04 µM) was 0.37. The relative viability (NCI-H1944; first compound 0.1265 µM) was 0.351, the relative viability (NCI-H1944; first compound 0.4 µM) was 0.36 and the relative viability (NCI-H1944; first compound 1.265 µM) was 0.322. It also gave a relative viability (NCI-H1944; first compound 4 µM) of 0.31, a relative viability (NCI-H2023; first compound 0.04 µM) of 0.343 and a relative viability (NCI-H2023; first compound 0.1265 µM) of 0.355. It also gave a relative viability (NCI-H2023; first compound 0.4 µM) of 0.287, a relative viability (NCI-H2023; first compound 1.265 µM) of 0.259 and a relative viability (NCI-H2023; first compound 4 µM) of 0.212. It also gave a relative viability (NCI-H2087; first compound 0.04 µM) of 0.242, a relative viability (NCI-H2087; first compound 0.1265 µM) of 0.246 and a relative viability (NCI-H2087; first compound 0.4 µM) of 0.219. For the same compound, the relative viability (NCI-H2087; first compound 1.265 µM) was 0.207, the relative viability (NCI-H2087; first compound 4 µM) was 0.244 and the relative viability (NCI-H441; first compound 0.04 µM) was 0.209. For the same compound, the relative viability (NCI-H441; first compound 0.1265 µM) was 0.202, the relative viability (NCI-H441; first compound 0.4 µM) was 0.146 and the relative viability (NCI-H441; first compound 1.265 µM) was 0.152. The relative viability (NCI-H441; first compound 4 µM) was 0.172, the relative viability (NCI-H460; first compound 0.04 µM) was 0.171 and the relative viability (NCI-H460; first compound 0.1265 µM) was 0.155. The relative viability (NCI-H460; first compound 0.4 µM) was 0.0931, the relative viability (NCI-H460; first compound 1.265 µM) was 0.247 and the relative viability (NCI-H460; first compound 4 µM) was 0.274. The relative viability (NCI-H520; first compound 0.04 µM) was 0.206, the relative viability (NCI-H520; first compound 0.1265 µM) was 0.216 and the relative viability (NCI-H520; first compound 0.4 µM) was 0.186. The relative viability (NCI-H520; first compound 1.265 µM) was 0.247, the relative viability (NCI-H520; first compound 4 µM) was 0.232 and the relative viability (NCI-H650; first compound 0.04 µM) was 0.398. The relative viability (NCI-H650; first compound 0.1265 µM) was 0.341, the relative viability (NCI-H650; first compound 0.4 µM) was 0.338 and the relative viability (NCI-H650; first compound 1.265 µM) was 0.303. It also gave a relative viability (NCI-H650; first compound 4 µM) of 0.296, a relative viability (NCI-H661; first compound 0.04 µM) of 0.384 and a relative viability (NCI-H661; first compound 0.1265 µM) of 0.417. It also gave a relative viability (NCI-H661; first compound 0.4 µM) of 0.416, a relative viability (NCI-H661; first compound 1.265 µM) of 0.359 and a relative viability (NCI-H661; first compound 4 µM) of 0.426. The relative viability (NCI-H727; first compound 0.04 µM) was 0.677, the relative viability (NCI-H727; first compound 0.1265 µM) was 0.629 and the relative viability (NCI-H727; first compound 0.4 µM) was 0.66. It also gave a relative viability (NCI-H727; first compound 4 µM) of 0.61, a relative viability (PC-3 [JPC-3]; first compound 0.04 µM) of 0.485 and a relative viability (PC-3 [JPC-3]; first compound 0.1265 µM) of 0.586. For the same compound, the relative viability (PC-3 [JPC-3]; first compound 0.4 µM) was 0.512, the relative viability (PC-3 [JPC-3]; first compound 1.265 µM) was 0.426 and the relative viability (PC-3 [JPC-3]; first compound 4 µM) was 0.422.
